This note sets out measurements from patent publication US10550113B2, “2-phenyl-3H-imidazo[4,5-B]pyridine derivates useful as inhibitors of mammalian tyrosine kinase ROR1 activity” (Kancera AB, priority 2015, dated 2020).

The subject of one data set is PBMC from CLL patients. Put plainly: CellTiter-Blue cell viability assay, cell toxicity in PBMC from CLL patients. The class given is cell-based. To be noted: Homo sapiens, 50 000 cells/well, cultured 24, 48 and 72 h (time of the IC50 not stated), % cytotoxicity vs 0.2% DMSO. Here is the method: (§1) Method for Measurement of Cell Toxicity
(§2) The CellTiter-Blue® Cell Viability Assay provides a homogeneous, fluorometric method for estimating the number of viable cells present in multi-well plates. The assay uses the indicator dye resazurin to measure the metabolic capacity of cells. Viable cells retain the ability to reduce resazurin into resorufin, which is highly fluorescent.
(§3) Stock solutions (10 or 100 mM in DMSO) of compounds were serially diluted 1:2 in 11 concentrations and 25 nL/well (100 mM stock) or 50 nL/well (10 mM stock) were acoustically dispensed in assay plates with an EDC acoustic dispenser. Final starting concentration in the assay was 20 μM (0.2% DMSO) or 100 μM (0.1% DMSO) for test compounds.
(§4) Peripheral blood mononuclear cells (PBMC) from CLL patients or healthy volunteers were seeded in assay plates (384-well black/clear, Greiner #781091) pre-dispensed with compounds, 25 μL/well, and cultured for 24, 48 and 72 h. The cell concentration was 50 000 cells/well for PBMC from CLL patients or healthy volunteers. After 24, 48 and 72 h culture, Celltiter Blue reagent was added (5 μL/well) and the plates were incubated for 2 h. The plates were read in an Envision fluorescence reader (PerkinElmer) with Ex544 nm/Em590 nm. Results were calculated as % cytotoxicity compared to background (cells treated with 0.2% DMSO).
(§5) Thus, IC50 values for cell toxicity in PBMC from CLL patients as well as healthy volunteers for some compounds of the invention are shown in Table 3.
Background: Alamar Blue is a resazurin reagent that responds to reducing activity.

Data set [1] in a line: CellTiter-Blue cell viability assay, cell toxicity in PBMC from healthy volunteers. The class given is cell-based. To be noted: human, 50 000 cells/well, cultured 24, 48 and 72 h (time of the IC50 not stated), % cytotoxicity vs 0.2% DMSO. Here is the method: as §1, §2, §3, §4, §5

For orientation: IC50 means the concentration that inhibits the measured activity by half. Turning to `CNC(=O)COc1ccc(-c2nc3c(NC4CCN(C)CC4)c(Cl)cnc3[nH]2)cc1OC` [Example 168, 2-(4-{6-chloro-7-[(1-methylpiperidin-4-yl)amino]-3H-imidazo[4,5-b]pyridin-2-yl}-2-methoxyphenoxy)-N-methylacetamide], the IC50 with PBMC from CLL patients was 250 nM; in data set [1], above 20000 nM.

On to `CNC(=O)COc1ccc(-c2nc3c(NC4CCN(C)CC4)c(Br)cnc3[nH]2)cc1F` [Example 184, 2-(4-{6-bromo-7-[(1-methylpiperidin-4-yl)amino]-3H-imidazo[4,5-b]pyridin-2-yl}-2-fluorophenoxy)-N-methylacetamide], for which the IC50 in the data set with PBMC from CLL patients was 110 nM; in data set [1], above 20000 nM.

As to `CNC(=O)Cc1ccc(-c2nc3c(NC4CCN(C)CC4)c(Cl)cnc3[nH]2)cc1` [Example 232, 2-(4-{6-chloro-7-[(1-methylpiperidin-4-yl)amino]-3H-imidazo[4,5-b]pyridin-2-yl}phenyl)-N-methylacetamide], the values for the IC50 (in the data set with PBMC from CLL patients; in data set [1]) were 570 nM and above 20000 nM, respectively.

As for `CN1CCC(Nc2c(Br)cnc3[nH]c(-c4ccc(OCC(=O)NC5CCCC5)cc4)nc23)CC1` [Example 259, 2-(4-{6-bromo-7-[(1-methylpiperidin-4-yl)amino]-3H-imidazo[4,5-b]pyridin-2-yl}phenoxy)-N-cyclopentylacetamide], the half-inhibitory concentration (IC50) is 33 nM in the data set on PBMC from CLL patients and 11100 nM in data set [1].

For the molecule `CC(=O)NCCOc1ccc(-c2nc3c(NC4CCN(C)CC4)c(Cl)cnc3[nH]2)cc1` [Example 265, N-[2-(4-{6-chloro-7-[(1-methylpiperidin-4-yl)amino]-3H-imidazo[4,5-b]pyridin-2-yl}phenoxy)ethyl] acetamide], the values for the half-maximal inhibitory concentration (IC50) (with PBMC from CLL patients; in data set [1]) were 260 nM and above 20000 nM, respectively.

Regarding `CN1CCC(Nc2c(Cl)cnc3[nH]c(-c4ccc(OCCNC(=O)c5ccncc5)cc4)nc23)CC1` [Example 272, N-[2-(4-{6-chloro-7-[(1-methylpiperidin-4-yl)amino]-3H-imidazo[4,5-b]pyridin-2-yl}phenoxy)ethyl]pyridine-4-carboxamide], the half-inhibitory concentration (IC50) with PBMC from CLL patients was 250 nM; in data set [1], above 20000 nM.

Consider `CNC(=O)COc1ccc(-c2nc3c(NC4CCN(Cc5c(C)nn(C)c5C)CC4)c(Br)cnc3[nH]2)cc1` [Example 288, 2-{4-[6-bromo-7-({1-[(1,3,5-trimethyl-1H-pyrazol-4-yl)methyl]piperidin-4-yl}amino)-3H-imidazo[4,5-b]pyridin-2-yl]phenoxy}-N-methylacetamide], for which the IC50 with PBMC from CLL patients was 400 nM; in data set [1], above 20000 nM.

`CNC(=O)CNc1ccc(-c2nc3c(NC4CCN(C)CC4)c(Cl)cnc3[nH]2)cc1` [Example 294, N^2-(4-(6-chloro-7-[(1-methylpiperidin-4-yl)amino]-3H-imidazo[4,5-b]pyridin-2-yl}phenyl)-N-methylglycinamide]: the half-maximal inhibitory concentration (IC50) in the data set with PBMC from CLL patients is 360 nM; in data set [1], above 20000 nM.

Take `CNC(=O)CCNc1ccc(-c2nc3c(NC4CCN(C)CC4)c(Cl)cnc3[nH]2)cc1` [Example 302, N^3-(4-{6-chloro-7-[(1-methylpiperidin-4-yl)amino]-3H-imidazo[4,5-b]pyridin-2-yl}phenyl)-N-methyl-b-alaninamide]: the IC50 in the data set on PBMC from CLL patients is 620 nM; in data set [1], above 20000 nM.
